From paper PMC10486429, “Investigations Using Albumin Binders to Modify the Tissue Distribution Profile of Radiopharmaceuticals Exemplified with Folate Radioconjugates” (Cancers, 2023)

Tests used:
[1] = test system: human serum albumin (HSA) in human blood plasma; experiment: Ultrafiltration albumin-binding assay of 177Lu-DOTA-ALBs, human blood plasma
Method: (§1) The relative affinities of ^177Lu-labeled DOTA-ALBs (50 MBq/nmol) to albumin in mouse and human blood plasma were determined using an ultrafiltration assay according to a previously described procedure (Supplementary Materials Section S5). A dry chemistry analyzer (DRI-CHEM 4000i, FUJIFILM, Japan) was used to determine the mouse serum albumin concentration (conc. MSA: ~550 µM) in mouse blood plasma (Rockland Immunochemicals, Inc., Pottstown, PA, USA, Lot No. 23248) and the human serum albumin concentration (conc. HSA: ~800 µM) in human blood plasma of a healthy volunteer (Stiftung Blutspende SRK Aargau-Solothurn, Aarau, Switzerland). The albumin-bound fraction of the radioligands was determined at variable molar concentration ratios of serum albumin to the respective radiolabeled DOTA-ALB using a blood plasma/PBS dilution series and a constant amount of ^177Lu-DOTA-ALBs (0.5 MBq; 0.01 nmol). The free (albumin-unbound) radioligand fraction was separated from the albumin-bound fraction using Centrifree filter devices (cut-off 10 kDa; Merck Millipore, Carrigtwohill, Ireland) to enable the calculation of the percentage of albumin-bound radioligand. […] The results were presented as average ± standard deviation (SD) of 3 independent experiments. […]
(§2) S5. Relative Albumin-binding Properties of 177Lu-DOTA-ALBs
(§3) Purpose: The relative albumin-binding affinities of the 177Lu-DOTA-ALBs were in-vestigated using mouse and human blood plasma.
(§4) Methods: Relative binding affinities of 177Lu-DOTA-ALBs to mouse (MSA) and hu-man (HSA) serum albumin in the respective blood plasma were determined using an ul-trafiltration assay according to a previously described procedure. In brief, an average MSA concentration of ⁓550 µM was measured for mouse blood plasma (Rockland Immu-nochemicals, Inc., Pottstown, PA, USA, Lot N° 23248), while an HSA concentration of ⁓800 µM was determined for human blood plasma (Stiftung Blutspende SRK Aargau-Solothurn, Aarau, Switzerland) using a dry chemistry analyzer (DRI-CHEM 4000i, FUJI-FILM, Japan). A fixed amount of the respective 177Lu-DOTA-ALB (50 MBq/nmol:, ~500 kBq, 25 µL, 0.01 nmol) was added to a defined volume (250 µL) of mouse and human […]
(§5) and 0.01 to 20000, respectively. […]
(§6) off 10 kDa; Merck Millipore, Carrigtwohill, Ireland). The albumin-bound fractions at the […]
(§7) the half-maximum binding (B50). The relative albumin-binding affinities were defined as […]
(§8) sented as average ± SD of 3 independent experiments.
(§9) Results: The results are reported in the main article.
(§10) S6. Blood Clearance of 177Lu-DOTA-ALBs […]
(§11) their blood clearance profile.
(§12) Blood clearance of 177Lu-labeled DOTA-ALBs were determined in n=3–6 mice per radioligand. The radiolabeled DOTA-ALBs ( […]
(§13) various timepoints over the following 48 h. […]
(§14) up to 3 and 7 days, respectively. […]

[2] = test system: mouse serum albumin (MSA) in mouse blood plasma; experiment: Ultrafiltration albumin-binding assay of 177Lu-DOTA-ALBs, mouse blood plasma
Method: as §1, §2, §3, §4, §5, §6, §7, §8, §9, §10, §11, §12, §13, §14

Structure (SMILES) | Fold higher albumin-binding affinity than [177Lu]Lu-DOTA-ALB-24 [1] | Fold higher albumin-binding affinity than [177Lu]Lu-DOTA-ALB-24 [2] | Albumin-binding affinity relative to [177Lu]Lu-DOTA-ALB-1 [1] | Fold stronger albumin-binding affinity than [177Lu]Lu-DOTA-ALB-25 [1] | Fold increased albumin-binding affinity relative to [177Lu]Lu-DOTA-ALB-1 [2] | Fold stronger albumin-binding affinity than [177Lu]Lu-DOTA-ALB-25 [2]
O=C(O)CN1CCN(CC(=O)O)CCN(CC(=O)NCCC(=O)N[C@@H](CCCCNC(=O)c2ccc(CNC(=O)CCCCc3ccc(I)cc3)cc2)C(=O)O)CCN(CC(=O)O)CC1.[177Lu] [[^177Lu]Lu-DOTA-ALB-25] | ~ 3 fold | ~ 5 fold | – | – | – | –
O=C(O)CN1CCN(CC(=O)O)CCN(CC(=O)NCCC(=O)N[C@@H](CCCCNC(=O)CCCc2ccc(I)cc2)C(=O)O)CCN(CC(=O)O)CC1.[177Lu] [[^177Lu]Lu-DOTA-ALB-1] | ~ 10 fold | ~ 3 fold | – | – | – | –
O=C(O)CN1CCN(CC(=O)O)CCN(CC(=O)NCCC(=O)N[C@@H](CCCCNC(=O)c2ccc(CNC(=O)CCCc3ccc(I)cc3)cc2)C(=O)O)CCN(CC(=O)O)CC1.[177Lu] [[^177Lu]Lu-DOTA-ALB-3] | – | – | almost no difference | ~ 4 fold | ~ 15 fold | ~ 10 fold
